Where two headings read alike, the source gives them in different places. Oligonucleotides are written 5' to 3', each unit as a sugar letter and its base; * is a phosphorothioate linkage, no mark a phosphodiester; rarer units and linkages stand in square brackets, end groups in braces. Plain capitals give the bases only. {P} = phosphate; d = 2'-deoxy (DNA); m = 2'-O-methyl; r = 2'-OH (RNA); f = 2'-fluoro
Assays:
TGF-β1 [1] = assay: EC50 of TGF-β1 siRNA candidates before and after modification, knockdown in cells; format: cell-based, human
Method: DLD-1, RKO, U87-MG and PANC-1 cells were seeded into 24-well cell plates (1 × 10^5/well), and then siRNAs (21mer or negative control) were transfected with commercial transfection reagent (lipo2000). The siRNA transfection concentration was 100 nM. Untreated cells were set as a blank control. Total RNA was extracted from cells 24 h after transfection. Reverse transcription was performed using the kit to obtain cDNA according to the manufacturer’s instructions. Relative levels of target gene TGF- β1 mRNA expression were determined by real-time PCR, normalized to the housekeeping gene β-actin. Gene knockdown effectiveness was expressed as a percentage of the blank control. […] Therefore, TF1-21-hm3# and TF1-21-hm6# were selected as candidate sequences, and these two sequences were modified (see Table 4 for modified sequences).
The EC50 of candidate sequences before and after modification in different cells (U87-MG, DLD-1, SK-Hep-1, BxPC3, A549, HUCCT, PANC-1 and RKO) were compared. U87-MG, DLD-1, SK-Hep-1, BxPC3, A549, HUCCT, PANC-1 and RKO cells were seeded in 24-well cell plates (1 × 10^5/well) and transfected with multiple concentration gradients in different cells for siRNA candidates (modified or unmodified), use the same procedure as for primary screening. Finally, the data were plotted using the software GraphPad Prism8 and EC50 values were calculated.

TGF-β1 [2] = assay: as above; format: cell-based; details: 293T cells, homo, 24h, 24well (second TGF-β1 table)
MC38-hPDL1 cells = assay: In vivo pharmacodynamics on humanized PDL1 locus colorectal cancer tumors (MC38-hPDL1) in immunocompetent mice; design: species or system C57BL/6J mice; details: positive control 4mpk, BIW*4W, I.P.
Method: The STP355 drug used in this example is the STP355 drug prepared in Example 9. C57BL/6J mice were subcutaneously inoculated with humanized PDL1 locus colorectal cancer tumor MC38-hPDL1 cells on the back, inoculation volume: 1×10^6/100 µL/mouse, inoculation location: above the right thigh of the mouse. When the average tumor volume reached 100 mm^3, group administration was started, divided into 4 groups, 8 animals/group. In this experiment, the doses of 4 mg/kg and 6 mg/kg were tested, and a model group was established, and the positive control group Tecentrip (atezolizumab) . The drug was administered twice a week for a total of 8 times. On the 0th, 3rd, 7th, 10th, 14th, 17th, 21st, 24th and 28th days, the tumor volume was measured with a vernier caliper, and the tumor growth inhibition rate TGI% was calculated according to the formula.
Calculation formula: TGI % = [1-(Ti-T0)/ (Vi-V0)] ×100%. • Ti represents the mean tumor volume of the treatment group at a certain time point, • T0 represents the mean tumor volume of the treatment group on day 0, • Vi represents the mean tumor volume of the model group at the same time point as Ti, • V0 represents the mean tumor volume of the model group at day 0.

B 16-F0 cells = assay: In vivo pharmacodynamics on melanoma (B16) in immunocompetent mouse model; details: positive control, 4 mg/kg i.p. QW
Method: The STP355 drug used in this example is the STP355 drug prepared in Example 9. C57BL/6J mice were inoculated with B 16-F0 cells subcutaneously on the back, inoculation volume: 1×10^6/100 µL/mice, 50 mice were inoculated, location: the right back of the mice. The average tumor volume was 80~100 mm^3 and started to be administered in groups. The dose of 2 mg/kg was administered intravenously, twice a week, for a total of 8 administrations, and the positive control group was administered with cisplatin, […], A total of 8 doses were administered.

[3] = A549 cells, homo, 24 h, 24well (Table 6), read-out: EC50 (nM, 24 h, 24well) A549
[4] = A549 cells, homo, 24h, 24well (second TGF-β1 table), read-out: EC50 (24h, nM, 24well) A549
[5] = BxPC3 cells, homo, 24 h, 24well (Table 6), read-out: EC50 (nM, 24 h, 24well) BxPC3
[6] = DLD-1 cells, Homo, 24h, 24well (second TGF-β1 table), read-out: EC50 (24h, nM, 24well) DLD-1
[7] = DLD-1 cells, homo, 24 h, 24well (Table 6), read-out: EC50 (nM, 24 h, 24well) DLD-1
[8] = Hucct cells, homo, 24 h, 24well (Table 6), read-out: EC50 (nM, 24 h, 24well) Hucct
[9] = Hucct cells, homo, 24h, 24well (second TGF-β1 table), read-out: EC50 (24h, nM, 24well) Hucct
[10] = PANC-1 cells, homo, 24 h, 24well (Table 6), read-out: EC50 (nM, 24 h, 24well) PANC-1
[11] = PANC-1 cells, homo, 24h, 24well (second TGF-β1 table), read-out: EC50 (24h, nM, 24well) PANC -1
[12] = RKO cells, homo, 24 h, 24well (Table 6), read-out: EC50 (nM, 24 h, 24well) RKO
[13] = RKO cells, homo, 24h, 24well (second TGF-β1 table), read-out: EC50 (24h, nM, 24well) RKO
[14] = SK-Hep1 cells, homo, 24 h, 24well (Table 6), read-out: EC50 (nM, 24 h, 24well) SK-Hep1
[15] = U87MG cells, homo, 24 h, 24well (Table 6), read-out: EC50 (nM, 24 h, 24well) U87MG
[16] = U87MG cells, homo, 24h, 24well (second TGF-β1 table), read-out: EC50 (24h, nM, 24well) U87M G
[17] = SK-Hep 1 cells, homo, 24h, 24well (second TGF-β1 table), read-out: EC50 (24h, nM, 24well) SK-Hep 1

Row | Compound | EC50 (TGF-β1 [1]; [3]) | EC50 (TGF-β1 [1]; [4]) | EC50 (TGF-β1 [1]; [5]) | EC50 (TGF-β1 [1]; [6]) | EC50 (TGF-β1 [1]; [7]) | EC50 (TGF-β1 [1]; [9]) | EC50 (TGF-β1 [1]; [10]) | EC50 (TGF-β1 [1]; [11]) | EC50 (TGF-β1 [1]; [12]) | EC50 (TGF-β1 [1]; [13]) | EC50 (TGF-β1 [1]; [14]) | EC50 (TGF-β1 [1]; [15]) | EC50 (TGF-β1 [1]; [16]) | EC50 (TGF-β1 [2]) | also measured
1 | TF1-21-hm6#: siRNA targeting TGF-β1 mRNA; sense SEQ ID 26, antisense SEQ ID 36 (sense CGGCAGCUGUACAUUGACUTT; antisense AGUCAAUGUACAGCUGCCGTT; sugars from the 5' end r19 d2, backbone not given here) | 3.02 nM | 3 nM | 0.03 nM | 0.9 nM | 0.85 nM | 0.007 nM | 12.7 nM | 12.7 nM | 0.05 nM | 0.048 nM | 0.22 nM | 0.12 nM | 0.1 nM | 0.11 nM | EC50 (TGF-β1 [1]; [8]): 0.01 nM
2 | TF1-20190711-1#: siRNA targeting TGF-β1 mRNA; sense SEQ ID 1, antisense SEQ ID 2 (sense GCAGAGUACACACAGCAUATT; antisense UAUGCUGUGUGUACUCUGCTT; sugars from the 5' end r19 d2, backbone not given here) |  |  |  |  |  | 0.002 nM |  |  |  |  |  |  |  | 0.08 nM | EC50 (TGF-β1 [1]; [17]): 1.6 nM
3 | TF1-21-hm6#mod: Modified (2′F, 2′OME, phosphorylation) siRNA targeting TGF-β1; sense SEQ ID 148, antisense SEQ ID 152 (sense mCmGmGmCmAmGfCfUfGmUmAmCmAmUmUmGmAmCmUdTdT; antisense {P}-mAfGmUmCmAmAmUmGmUmAmCmAmGfCmUmGmCmCmGdTdT) | 0.22 nM |  | 0.01 nM |  |  |  |  |  | 0.04 nM |  | 0.59 nM | 0.09 nM |  | 0.1 nM | 
4 | atezolizumab [Tecentrip] |  |  |  |  |  |  |  |  |  |  |  |  |  |  | tumor weight versus model group (MC38-hPDL1 cells): significantly lower than the model group; tumor volume versus model control group (MC38-hPDL1 cells; day 7 to day 28): significantly smaller than that of the model control group
5 | TF1-21-hm3#mod: Modified (2′F, 2′OME, phosphorylation) siRNA targeting TGF-β1; sense SEQ ID 147, antisense SEQ ID 151 (sense mAmAmCmUmAmUfUfGfCmUmUmCmAmGmCmUmCmCmAdTdT; antisense {P}-mUfGmGmAmGmCmUmGmAmAmGmCmAfAmUmAmGmUmUdTdT) | 0.04 nM | 0.04 nM | 0.17 nM |  | 0.02 nM |  | 0.02 nM |  | 0.08 nM | 0.08 nM | 2.64 nM | 1.48 nM |  |  | 
6 | TF1-20190711-1#mod: Modified siRNA targeting TGF-β1; sense SEQ ID 149, antisense SEQ ID 153 (sense GCAGAGUACACACAGCAUATT; antisense UAUGCUGUGUGUACUCUGCTT; sense: sugars from the 5' end m6 f3 m10 d2, backbone not given here; antisense: sugars from the 5' end mfmmmmmmmmmmmfmmmmmdd, 5' {P}, backbone not given here) |  |  |  |  |  |  |  |  |  |  |  |  |  | 0.25 nM | 
7 | TF1-21-hm7#: siRNA targeting TGF-β1 mRNA; sense SEQ ID 27, antisense SEQ ID 37 (sense GGCAGCUGUACAUUGACUUTT; antisense AAGUCAAUGUACAGCUGCCTT; sugars from the 5' end r19 d2, backbone not given here) |  | 0.1 nM |  | 0.7 nM |  | 0.031 nM |  | 12 nM |  | 0.1 nM |  |  | 0.6 nM |  | 
8 | TF1-21-hm3#: siRNA targeting TGF-β1 mRNA; sense SEQ ID 23, antisense SEQ ID 33 (sense AACUAUUGCUUCAGCUCCATT; antisense UGGAGCUGAAGCAAUAGUUTT; sugars from the 5' end r19 d2, backbone not given here) | 1.36 nM | 1.4 nM | 0.25 nM | 0.2 nM | 0.15 nM | 0.029 nM | 6.65 nM | 6.6 nM | 0.1 nM | 0.1 nM | 3.16 nM | 0.29 nM | 0.3 nM |  | EC50 (TGF-β1 [1]; BxPC 3 cells, homo, 24h, 24well (second TGF-β1 table), read-out: EC50 (24h, nM, 24well) BxPC 3): 11.9 nM; EC50 (TGF-β1 [1]; [8]): 0.03 nM
9 | N.N.[Cl][Pt][Cl] [cisplatin] |  |  |  |  |  |  |  |  |  |  |  |  |  |  | anti-tumor effect (B 16-F0 cells): significant anti-tumor effects
10 | TF1-20190711-5#: siRNA targeting TGF-β1 mRNA; sense SEQ ID 9, antisense SEQ ID 10 (sense GAGUACACACAGCAUAUAUTT; antisense AUAUAUGCUGUGUGUACUCTT; sugars from the 5' end r19 d2, backbone not given here) |  |  |  |  |  |  |  |  |  |  |  |  |  |  | EC50 (TGF-β1 [1]; [17]): 9.8 nM

Source: patent US20230323358A1, “COMPOSITION AND USE OF siRNAs AGAINST VEGFR2 AND TGF-BETA1 IN COMBINATION THERAPY FOR CANCER” (Sirnaomics, Inc., priority 2021, published 2023)
